From patent US11478451B1, “Macrocyclic chlorine substituted indole derivatives” (Bayer Aktiengesellschaft, priority 2017, dated 2022)
Structures can show the parent of a compound that is named as a salt. Where two headings read alike, the source gives them in different places.

What was measured:
SUDHL5 cells [1] = test: Induction of caspase-3/7 activity (Caspase-Glo 3/7), SUDHL5; assay type: cell-based; conditions: EC50, median, SUDHL5, 3 h treatment
Experimental: (§1) Induction of Caspase-3/7 Activity Upon Treatment of Cells with Selected Compounds
(§2) The BH3-domain of MCL-1 sequesters pro-apoptotic proteins, thereby inhibiting apoptosis. In contrast, MCL-1 inhibitors are expected to antagonize this effect leading to an increase in apoptosis, which can be determined by measuring the activity of caspase-3/7.
(§3) The activity of caspase-3/7 was determined in DLBCL (Diffuse large B-cell lymphoma) cell lines (SUDHL5 and SUDHL10) upon treatment with different compounds, using the Caspase-Glo® 3/7 reagent from Promega (G8092).
(§4) Rim wells were excluded. The cells were incubated for 3 h hours in a humidified incubator at 37° C.
(§5) For the evaluation of the results, the background measured with “medium-only” was subtracted from all other values.

SUDHL10 cells [2] = test: Induction of caspase-3/7 activity (Caspase-Glo 3/7), SUDHL10; assay type: cell-based; conditions: EC50, median, SUDHL10, 3 h treatment
Experimental: as §1, §2, §3, §4, §5

SUDHL5 cells [3] = test: Induction of cytotoxicity (CellTiter-Glo, 5 h), SUDHL5; conditions: SUDHL5, 5 h
SUDHL10 cells [4] = test: Induction of cytotoxicity (CellTiter-Glo, 5 h), SUDHL10; conditions: SUDHL10, 5 h
AMO-1 cells = test: Antiproliferation assay (CellTiter-Glo, 72 h), AMO-1; assay type: cell-based; conditions: IC50, median, AMO-1, 72 h, read-out: Antiproli AMO-1 [M] median
Experimental: (§6) Assessment of the Anti-Proliferative Effect of Compounds in Different Cell Lines
(§7) The impact of compounds on the proliferation of different cell lines was assessed using the CellTiter-Glo® Luminescent Cell Viability reagent from Promega (G7573).
(§8) In parallel, cells were plated in a reference (day 0) plate for time zero determination.
(§9) Rim wells were excluded. The cells were incubated for 72 h hours in a humidified incubator at 37° C. The day 0 plate was measured by adding 30 μL/well of CTG solution (CellTiter-Glo® Luminescent Cell Viability reagent, Promega G7573) to time zero wells in the reference plate followed by a 10 minutes incubation and luminescence reading at 0.1 ms. using the PHERAstar FS microplate reader (BMG Labtech).
(§10) After 72 h incubation, the treated plates were measured in the same way as the day 0 plate mentioned above.

SUDHL5 cells [5] = test: Antiproliferation assay (CellTiter-Glo, 72 h), SUDHL5; assay type: cell-based; conditions: Homo sapiens, SU-DHL-5, 72 h, IC50, median; SUDHL5, 72 h; read-out: Antiproli SUDHL5 [M] (median)
Experimental: as §6, §7, §8, §9, §10

[6] = read-out: Cytotox SUDHL5 [M] (median), IC50, median
[7] = read-out: Cytotox SUDHL10 [M] (median), IC50, median
[8] = Homo sapiens, SU-DHL-5, 5 h, read-out: Cytotox SUDHL5 [M] (median), IC50, median

Row | Structure (SMILES) | EC50 (SUDHL10 cells [2]) [µM] | IC50 (SUDHL5 cells [3]; [6]) [M] | IC50 (SUDHL10 cells [4]; [7]) [M] | EC50 (SUDHL5 cells [1]; Homo sapiens, SU-DHL-5, 3 h) [µM] | other results
1 | CCc1c2c(nn1C)COCC(O)CCn1c(C(=O)O)c(CCCOc3cccc4cc(F)ccc34)c3ccc(Cl)c-2c31 (centres unmarked) [Example 101, 4-chloro-3-ethyl-7-{3-[(6-fluoronaphthalen-1-yl)oxy]propyl}-12-hydroxy-2-methyl-2,10,11,12,13,15-hexahydropyrazolo[4′,3′:9,10][1,6]oxazacycloundecino[8,7,6-hi]indole-8-carboxylic acid-N-ethylethanamine salt] | 6.1 | 7.3e-06 | 7.7e-06 | – | EC50 (SUDHL5 cells [1]): 5.9 µM
2 | Cc1c2c(nn1C)COCC1CCC1Cn1c(C(=O)O)c(CCCOc3cccc4ccccc34)c3ccc(Cl)c-2c31 (single isomer, unassigned; enantiomer 1) [Example 78, 3-chloro-4,5-dimethyl-15-{3-[(naphthalen-1-yl)oxy]propyl}-5,7,9,9a,10,11,11a,12-octahydrocyclobuta[3,4]pyrazolo[4′,3′:9,10][1,6]oxazacycloundecino[8,7,6-hi]indole-14-carboxylic acid (Enantiomer 1)] | – | – | – | 0.67 | EC50 (SUDHL10 cells [2]; listed as 078): 3.8 µM; IC50 (AMO-1 cells; Homo sapiens, AMO1, 72 h): 3e-06 M; IC50 (SUDHL5 cells [3]; [8]): 8.2e-07 M; IC50 (SUDHL10 cells [4]; Homo sapiens, SU-DHL10, 5 h, read-out: Cytotox SUDHL10 [M] (median), IC50, median): 3.1e-06 M
3 | CCc1c2c(nn1C)CCCCCCn1c(C(=O)O)c(CCCOc3cccc4ccccc34)c3ccc(Cl)c-2c31 (single isomer, unassigned; enantiomer 1) [Example 52, (+)-4-chloro-3-ethyl-2-methyl-7-{3-[(naphthalen-1-yl)oxy]propyl}-10,11,12,13,14,15-hexahydro-2H-pyrazolo[4′,3′:4,5]azacycloundecino[3,2,1-hi]indole-8-carboxylic acid-N-ethylethanamine salt—Enantiomer 1] | – | – | 2e-06 | 0.8 | IC50 (AMO-1 cells; Homo sapiens, AMO1, 72 h): 2.2e-06 M
4 | CCc1c2c(nn1C)COCC1CC1Cn1c(C(=O)O)c(CCCOc3cccc4cc(F)ccc34)c3ccc(Cl)c-2c31 (single isomer, unassigned; (-)) [Example 105, (−)-3-chloro-4-ethyl-14-{3-[(6-fluoronaphthalen-1-yl)oxy]propyl}-5-methyl-5,7,9a,10,10a,11-hexahydro-9H-cyclopropa[3,4]pyrazolo[4′,3′:9,10][1,6]oxazacycloundecino[8,7,6-hi]indole-13-carboxylic acid N-ethylethanamine salt] | 0.12 | – | 2.2e-07 | – | EC50 (SUDHL5 cells [1]): 0.13 µM
5 | CCc1c2c(nn1C)CN(C)CCCn1c(C(=O)O)c(CCCOc3cccc4cc(F)ccc34)c3ccc(Cl)c-2c31 [Example 114, (−)-2-chloro-11-ethyl-1-{3-[(6-fluoronaphthalen-1-yl)oxy]propyl}-7,10-dimethyl-4,5,6,7,8,10-hexahydropyrazolo[3′,4′:7,8][1,5]diazecino[9,10,1-hi]indole-2-carboxylic acid salt] | 6.3 | 5.7e-06 | 5.9e-06 | – | EC50 (SUDHL5 cells [1]): 4.3 µM; IC50 (AMO-1 cells): 4.4e-06 M
6 | CCc1nn(C)c2c1-c1c(Cl)ccc3c(CCCOc4cccc5cc(F)ccc45)c(C(=O)O)n(c13)CCCCN(C)C2 (single isomer, unassigned; enantiomer 1) [Example 40, 4-chloro-3-ethyl-7-{3-[(6-fluoronaphthalen-1-yl)oxy]propyl}-1,14-dimethyl-10,11,12,13,14,15-hexahydro-1H-pyrazolo[3′,4′:8,9][1,6]diazacycloundecino[10,11,1-hi]indole-8-carboxylic acid (Enantiomer 1)] | – | – | – | 0.2 | IC50 (SUDHL5 cells [5]): 2e-07 M; IC50 (AMO-1 cells; Homo sapiens, AMO1, 72 h): 3.6e-07 M
7 | CCc1c2c(nn1C)COCC(O)CCn1c(C(=O)O)c(CCCOc3cccc4cc(F)ccc34)c3ccc(Cl)c-2c31 (centres unmarked) [Example 102, 4-chloro-3-ethyl-7-{3-[(6-fluoronaphthalen-1-yl)oxy]propyl}-12-hydroxy-2-methyl-2,10,11,12,13,15-hexahydropyrazolo[4′,3′:9,10][1,6]oxazacycloundecino[8,7,6-hi]indole-8-carboxylic acid-N-ethylethanamine salt] | 7.8 | 8.4e-06 | 8.2e-06 | – | –
8 | CCc1c2c(nn1C)COCCCCn1c(C(=O)O)c(CCCOc3cccc4cc(F)ccc34)c3ccc(Cl)c-2c31 (single isomer, unassigned; enantiomer 2) [Example 38, (−)-4-chloro-3-ethyl-7-{3-[(6-fluoronaphthalen-1-yl)oxy]propyl}-2-methyl-2,10,11,12,13,15-hexahydropyrazolo[4′,3′:9,10][1,6]oxazacycloundecino[8,7,6-hi]indole-8-carboxylic acid-N-ethylethanamine salt (Enantiomer 2)] | – | – | – | 5.4 | –
9 | Cc1c2c(nn1C)COCC(F)(F)CCn1c(C(=O)O)c(CCCOc3cccc4ccccc34)c3ccc(Cl)c-2c31 (single isomer, unassigned; enantiomer 2) [Example 57, 4-chloro-12,12-difluoro-2,3-dimethyl-7-{3-[(naphthalen-1-yl)oxy]propyl}-2,10,11,12,13,15-hexahydropyrazolo[4′,3′:9,10][1,6]oxazacycloundecino[8,7,6-hi]indole-8-carboxylic acid-N-ethylethanamine salt—Enantiomer 2] | 8 | 4.9e-06 | – | – | EC50 (SUDHL5 cells [1]): 3.2 µM; IC50 (AMO-1 cells): 7.6e-06 M
10 | CCc1c2c(nn1C)CN(CCOC)CCCCn1c(C(=O)O)c(CCCOc3cccc4cc(F)ccc34)c3ccc(Cl)c-2c31 (single isomer, unassigned; enantiomer 1) [Example 132, 4-chloro-3-ethyl-7-{3-[(6-fluoronaphthalen-1-yl)oxy]propyl}-14-(2-methoxyethyl)-2-methyl-10,11,12,13,14,15-hexahydro-2H-pyrazolo[3′,4′:8,9][1,6]diazacycloundecino[10,11,1-hi]indole-8-carboxylic acid (Enantiomer 1)] | – | – | – | 9.3 | IC50 (SUDHL5 cells [3]; [8]): 8.2e-06 M
11 | CCc1c2c(nn1C)CN(C)CCCCn1c(C(=O)O)c(CCCOc3cccc4cc(F)ccc34)c3ccc(Cl)c-2c31 (single isomer, unassigned; enantiomer 2) [Example 7, 4-chloro-3-ethyl-7-{3-[(6-fluoronaphthalen-1-yl)oxy]propyl}-2,14-dimethyl-10,11,12,13,14,15-hexahydro-2H-pyrazolo[3′,4′:8,9][1,6]diazacycloundecino[10,11,1-hi]indole-8-carboxylic acid (Enantiomer 2)] | – | 6.1e-06 | 9.3e-06 | 8 | IC50 (AMO-1 cells): 6.6e-06 M
12 | Cc1c2c(nn1C)COCC(F)(F)CCn1c(C(=O)O)c(CCCOc3cccc4cc(F)ccc34)c3ccc(Cl)c-2c31 (racemic) [Example 90, (rac)-4-Chloro-12,12-difluoro-7-{3-[(6-fluoronaphthalen-1-yl)oxy]propyl}-2,3-dimethyl-2,10,11,12,13,15-hexahydropyrazolo[4′,3′:9,10][1,6]oxazacycloundecino[8,7,6-hi]indole-8-carboxylic acid] | – | – | – | 8.5 | IC50 (AMO-1 cells; Homo sapiens, AMO1, 72 h): 4.9e-06 M; IC50 (SUDHL5 cells [3]; [8]): 9.9e-06 M
13 | CCc1c2c(nn1C)CCCCCCn1c(C(=O)O)c(CCCOc3cccc4cc(F)ccc34)c3ccc(Cl)c-2c31 (racemic) [Example 54, (rac)-4-chloro-3-ethyl-7-{3-[(6-fluoronaphthalen-1-yl)oxy]propyl}-2-methyl-10,11,12,13,14,15-hexahydro-2H-pyrazolo[4′,3′:4,5]azacycloundecino[3,2,1-hi]indole-8-carboxylic acid] | – | – | – | 3.5 | –
14 | CCc1nn(CCN2CCOCC2)c2c1-c1c(Cl)ccc3c(CCCOc4cccc5ccccc45)c(C(=O)O)n(c13)CCCCN(C)C2 (racemic) [Example 45, (rac)-4-chloro-3-ethyl-14-methyl-1-[2-(morpholin-4-yl)ethyl]-7-{3-[(naphthalen-1-yl)oxy]propyl}-10,11,12,13,14,15-hexahydro-1H-pyrazolo[3′,4′:8,9][1,6]diazacycloundecino[10,11,1-hi]indole-8-carboxylic acid] | – | – | – | 9.4 | IC50 (SUDHL5 cells [5]): 7.2e-06 M; IC50 (SUDHL5 cells [3]; [8]): 8.1e-06 M
